Test results reported in patent publication US12145944B2, “Imidazopyrimidines as EED inhibitors and the use thereof” (THE REGENTS OF THE UNIVERSITY OF MICHIGAN, priority 2019, dated 2024).

What was measured:
Pfeiffer cell line = test: Anti-proliferative activity, Pfeiffer cell line, 7 day treatment; format: cell-based; conditions: Homo sapiens, 168 h; anti-proliferative IC50, Pfeiffer cell line, 7 day treatment; read-out: Pfeiffer Cell line
In short: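 Cells seeded at 2 000-3 000 per well were treated with serially diluted compounds for 7 days at 37° C, 5% CO2. Growth was measured by WST-8 assay read at 450 nm after 1-4 h reagent incubation. Readings were normalized to DMSO-treated cells and IC50 values derived by nonlinear regression.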

[1] = system: KARPAS422 human B cell lymphoma cell; test: Cell proliferation, KARPAS422, 7 day treatment (WST-8); format: cell-based; conditions: Homo sapiens, KARPAS-422, 168 h, anti-proliferative IC50, Karpas 422 cell line, 7 day treatment; read-out: Karpas Cell line
In short: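 Read-out was WST-8 absorbance at 450 nm after 1-4 h with reagent, taken after 7-day compound treatment (serial dilutions, 37 °C, 5% CO2) of 2 000-3 000 KARPAS422 cells per well. IC50 fitted by nonlinear regression on DMSO-normalized values.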

IC50 (Pfeiffer cell line) [nM] | IC50 [1] [nM] | Structure (SMILES)
0.79 | 9.6 | O=C1NCc2cc(C(F)(F)F)ccc2-c2cnc(NCc3c(F)ccc4c3CCO4)n3cnc1c23 [compound 19, 12-(((5-fluoro-2,3-dihydrobenzofuran-4-yl)methyl)amino)-7-(trifluoromethyl)-4,5-dihydro-3H-2,4,11,12a-tetraazabenzo[4,5]cycloocta[1,2,3-cd]inden-3-one]
0.9 | 13.9 | O=C1NCc2c(F)cccc2-c2cnc(NCc3c(F)ccc4c3CCO4)n3cnc1c23 [compound 20, 6-fluoro-12-(((5-fluoro-2,3-dihydrobenzofuran-4-yl)methyl)amino)-4,5-dihydro-3H-2,4,11,12a-tetraazabenzo[4,5]cycloocta[1,2,3-cd]inden-3-one]
0.61 | 14.9 | Cc1ccc2c(n1)CNC(=O)c1ncn3c(NCc4c(F)ccc5c4CCO5)ncc-2c13 [compound 21, 12-(((5-fluoro-2,3-dihydrobenzofuran-4-yl)methyl)amino)-7-methyl-4,5-dihydro-3H-2,4,6,11,12a-pentaazabenzo[4,5]cycloocta[1,2,3-cd]inden-3-one]
4.88 | 45.6 | O=C1NCc2cc(C(F)(F)F)ncc2-c2cnc(NCc3c(F)ccc4c3CCO4)n3cnc1c23 [compound 22, 12-(((5-fluoro-2,3-dihydrobenzofuran-4-yl)methyl)amino)-7-(trifluoromethyl)-4,5-dihydro-3H-2,4,8,11,12a-pentaazabenzo[4,5]cycloocta[1,2,3-cd]inden-3-one]
9.95 | 89.2 | O=C1NCc2ccc(F)cc2-c2cnc(NCc3c(F)ccc4c3CCO4)n3cnc1c23 [compound 23, 8-fluoro-12-(((5-fluoro-2,3-dihydrobenzofuran-4-yl)methyl)amino)-4,5-dihydro-3H-2,4,11,12a-tetraazabenzo[4,5]cycloocta[1,2,3-cd]inden-3-one]
38.4 | > 100 | O=C1OCc2ccc(C(F)(F)F)cc2-c2cnc(NCc3c(F)ccc4c3CCO4)n3cnc1c23 [compound 24, 12-(((5-fluoro-2,3-dihydrobenzofuran-4-yl)methyl)amino)-8-(trifluoromethyl)-3H,5H-4-oxa-2,11,12a-triazabenzo[4,5]cycloocta[1,2,3-cd]inden-3-one]
0.29 | 16.5 | O=C1NCc2nc(C(F)(F)F)ccc2-c2cnc(NCc3c(F)ccc4c3CCO4)n3cnc1c23 [compound 25, 12-(((5-fluoro-2,3-dihydrobenzofuran-4-yl)methyl)amino)-7-(trifluoromethyl)-4,5-dihydro-3H-2,4,6,11,12a-pentaazabenzo[4,5]cycloocta[1,2,3-cd]inden-3-one]
32.9 | 41.4 | O=C1NCc2ccc(C(F)(F)F)cc2-c2cnc(NCc3c(F)ccc4c3CCO4)n3cnc1c23 [compound 26, 12-(((5-fluoro-2,3-dihydrobenzofuran-4-yl)methyl)amino)-8-(trifluoromethyl)-4,5-dihydro-3H-2,4,11,12a-tetraazabenzo[4,5]cycloocta[1,2,3-cd]inden-3-one]
> 100 | > 100 | O=C1OCc2cc(C(F)(F)F)ccc2-c2cnc(NCc3cccc4c3OCO4)n3cnc1c23 [compound 27, 12-((benzo[d][1,3]dioxol-4-ylmethyl)amino)-7-(trifluoromethyl)-3H,5H-4-oxa-2,11,12a-triazabenzo[4,5]cycloocta[1,2,3-cd]inden-3-one]
> 100 | > 100 | COc1cccc(F)c1CNc1ncc2c3c(ncn13)C(=O)OCc1cc(C(F)(F)F)ccc1-2 [compound 28, 12-((2-fluoro-6-methoxybenzyl)amino)-7-(trifluoromethyl)-3H,5H-4-oxa-2,11,12a-triazabenzo[4,5]cycloocta[1,2,3-cd]inden-3-one]
11.6 | 84.4 | O=C1OCc2cnc(C(F)(F)F)cc2-c2cnc(NCc3c(F)ccc4c3CCO4)n3cnc1c23 [compound 32, 12-(((5-fluoro-2,3-dihydrobenzofuran-4-yl)methyl)amino)-8-(trifluoromethyl)-3H,5H-4-oxa-2,7,11,12a-tetraazabenzo[4,5]cycloocta[1,2,3-cd]inden-3-one]
0.22 | 1.11 | CN1Cc2nc(C(F)(F)F)ccc2-c2cnc(NCc3c(F)ccc4c3CCO4)n3cnc(c23)C1=O [compound 33, 12-(((5-fluoro-2,3-dihydrobenzofuran-4-yl)methyl)amino)-4-methyl-7-(trifluoromethyl)-4,5-dihydro-3H-2,4,6,11,12a-pentaazabenzo[4,5]cycloocta[1,2,3-cd]inden-3-one]
0.35 | 2.64 | CN1Cc2cc(C(F)(F)F)ncc2-c2cnc(NCc3c(F)ccc4c3CCO4)n3cnc(c23)C1=O [compound 34, 12-(((5-fluoro-2,3-dihydrobenzofuran-4-yl)methyl)amino)-4-methyl-7-(trifluoromethyl)-4,5-dihydro-3H-2,4,8,11,12a-pentaazabenzo[4,5]cycloocta[1,2,3-cd]inden-3-one]
0.12 | 1.23 | O=C1c2ncn3c(NCc4c(F)ccc5c4CCO5)ncc(c23)-c2ccc(C(F)(F)F)nc2CN1CC1COCCO1 (stereo not shown) [compound 35, 4-((1,4-dioxan-2-yl)methyl)-12-(((5-fluoro-2,3-dihydrobenzofuran-4-yl)methyl)amino)-7-(trifluoromethyl)-4,5-dihydro-3H-2,4,6,11,12a-pentaazabenzo[4,5]cycloocta[1,2,3-cd]inden-3-one]
0.25 | 1.79 | O=C1c2ncn3c(NCc4c(F)ccc5c4CCO5)ncc(c23)-c2cnc(C(F)(F)F)cc2CN1CC1COCCO1 (stereo not shown) [compound 37, 4-((1,4-dioxan-2-yl)methyl)-12-(((5-fluoro-2,3-dihydrobenzofuran-4-yl)methyl)amino)-7-(trifluoromethyl)-4,5-dihydro-3H-2,4,8,11,12a-pentaazabenzo[4,5]cycloocta[1,2,3-cd]inden-3-one]
3.22 | 15.7 | CN1CCC(CN2Cc3cc(C(F)(F)F)ncc3-c3cnc(NCc4c(F)ccc5c4CCO5)n4cnc(c34)C2=O)CC1 [compound 38, 12-(((5-fluoro-2,3-dihydrobenzofuran-4-yl)methyl)amino)-4-((1-methylpiperidin-4-yl)methyl)-7-(trifluoromethyl)-4,5-dihydro-3H-2,4,8,11,12a-pentaazabenzo[4,5]cycloocta[1,2,3-cd]inden-3-one]
22.7 | > 100 | CN1Cc2ccc(C(F)(F)F)nc2-c2cnc(NCc3c(F)ccc4c3CCO4)n3cnc(c23)C1=O [compound 39, 12-(((5-fluoro-2,3-dihydrobenzofuran-4-yl)methyl)amino)-4-methyl-8-(trifluoromethyl)-4,5-dihydro-3H-2,4,9,11,12a-pentaazabenzo[4,5]cycloocta[1,2,3-cd]inden-3-one]
38.8 | > 100 | O=C1c2ncn3c(NCc4c(F)ccc5c4CCO5)ncc(c23)-c2nc(C(F)(F)F)ccc2CN1CC1COCCO1 (stereo not shown) [compound 40, 4-((1,4-dioxan-2-yl)methyl)-12-(((5-fluoro-2,3-dihydrobenzofuran-4-yl)methyl)amino)-8-(trifluoromethyl)-4,5-dihydro-3H-2,4,9,11,12a-pentaazabenzo[4,5]cycloocta[1,2,3-cd]inden-3-one]
1.03 | 1.69 | O=C1c2ncn3c(NCc4c(F)ccc5c4CCO5)ncc(c23)-c2ccc(C(F)(F)F)nc2CN1C1CC1 [compound 41, 4-cyclopropyl-12-(((5-fluoro-2,3-dihydrobenzofuran-4-yl)methyl)amino)-7-(trifluoromethyl)-4,5-dihydro-3H-2,4,6,11,12a-pentaazabenzo[4,5]cycloocta[1,2,3-cd]inden-3-one]
4.19 | 4.01 | CN1CCC(CN2Cc3nc(C(F)(F)F)ccc3-c3cnc(NCc4c(F)ccc5c4CCO5)n4cnc(c34)C2=O)CC1 [compound 42, 12-(((5-fluoro-2,3-dihydrobenzofuran-4-yl)methyl)amino)-4-((1-methylpiperidin-4-yl)methyl)-7-(trifluoromethyl)-4,5-dihydro-3H-2,4,6,11,12a-pentaazabenzo[4,5]cycloocta[1,2,3-cd]inden-3-one]
1.05 | 5.46 | O=C1c2ncn3c(NCc4c(F)ccc5c4CCO5)ncc(c23)-c2cnc(C(F)(F)F)cc2CN1CC1(O)CC1 [compound 43, 12-(((5-fluoro-2,3-dihydrobenzofuran-4-yl)methyl)amino)-4-((1-hydroxycyclopropyl)methyl)-7-(trifluoromethyl)-4,5-dihydro-3H-2,4,8,11,12a-pentaazabenzo[4,5]cycloocta[1,2,3-cd]inden-3-one]
1.03 | 2.44 | O=C1c2ncn3c(NCc4c(F)ccc5c4CCO5)ncc(c23)-c2ccc(C(F)(F)F)nc2CN1CC1(O)CC1 [compound 44, 12-(((5-fluoro-2,3-dihydrobenzofuran-4-yl)methyl)amino)-4-((1-hydroxycyclopropyl)methyl)-7-(trifluoromethyl)-4,5-dihydro-3H-2,4,6,11,12a-pentaazabenzo[4,5]cycloocta[1,2,3-cd]inden-3-one]
0.61 | 6.15 | O=C1c2ncn3c(NCc4c(F)ccc5c4CCO5)ncc(c23)-c2cnc(C(F)(F)F)cc2CN1CC1CCOCC1 [compound 45, 12-(((5-fluoro-2,3-dihydrobenzofuran-4-yl)methyl)amino)-4-((tetrahydro-2H-pyran-4-yl)methyl)-7-(trifluoromethyl)-4,5-dihydro-3H-2,4,8,11,12a-pentaazabenzo[4,5]cycloocta[1,2,3-cd]inden-3-one]
